Experimental data as given in article PMC13080969 (Journal of Chemical Information and Modeling, 2026).
Read-outs that look alike come from different tables or passages of the source.

Tests used:
[1] = design: method as in PMID 39334981; conditions: clinical comparators; read-out: CC50 (cytotoxicity); cited from earlier work
[2] = tested on: intracellular L. infantum amastigotes; design: method as in PMID 39334981; conditions: clinical comparators, cited from earlier work; for IC50: read-out: IC50 against intracellular L. infantum amastigotes
[3] = tested on: intracellular L. infantum amastigotes; test: Intracellular assay in infected THP-1-derived macrophages; assay type: cell-based, Leishmania infantum; conditions: for IC50: 48 h; for Selectivity index Intracellular: SI = CC50/IC50
Method: (§1) L. infantum promastigotes were grown at 26 °C in Schneider medium (Sigma), supplemented with 20% heat-inactivated fetal bovine serum (Sigma) and 1% penicillin-streptomycin (Sigma). To ensure maintenance of virulence, the parasites were serially passed through BALB/c mice. THP-1 cells were cultured in RPMI-1640 medium (Sigma-Aldrich), supplemented with 10% heat-inactivated SFB (Sigma) and 1% penicillin-streptomycin (Life Technologies), maintained at a density of 10^6 cells/mL, and incubated at 37 °C in a 5% CO2 atmosphere. For differentiation, THP-1 cells were seeded in 96-well culture plates at a concentration of 1 × 10^4 cells/well and treated with 100 ng/mL of […] (PMA, Sigma-Aldrich) and incubated for 48 h at 37 °C and 5% CO2. Cell viability was previously assessed using the Trypan Blue exclusion method. […] Differentiated THP-1 cells were washed with nonsupplemented RPMI-1640 and given fresh medium without PMA. The cells were rested for 24 h before further treatment.
THP-1 cells differentiated in 96-well culture plates were infected with promastigotes in the stationary phase at a ratio of 30 parasites: 1 cell for 4 h at 37 °C in a final volume of 100 μL. The noninternalized parasites were then removed by washing with RPMI-1640 medium. The compounds were diluted at concentrations of 200–0.7 μM in 100 μL of culture medium per well for serial dilution. Subsequently, 100 μL of the diluted compounds was added to the infected THP-1 cells and incubated for 48 h, with each condition tested in technical replicates (≥2 wells per condition). The number of intracellular parasites per 100 macrophages was counted using light microscopy. The infection rate was determined in relation to the mean of the control wells. The IC50 values were determined independently in three separate experiments by fitting concentration–response curves to a 4PL model in GraphPad Prism v10.

[4] = tested on: L. infantum promastigotes; test: Promastigote assay (resazurin viability); assay type: cell-based, Leishmania infantum; conditions: for IC50: Leishmania infantum, 48 h, read-out: L. infantum IC50 Promastigotes; for Selectivity index Promastigotes: SI = CC50/IC50
Method: as §1
To evaluate the effect of prioritized compounds on parasite viability, 4 × 10^6 promastigotes/mL were incubated in the presence of a series of 11 points (0.1% DMSO) for 48 h at 28 °C to a final volume of 200 μL in a 96-well microplate, with each condition tested in technical replicates (≥2 wells per condition). Next, 20 μL of resazurin solution (0.39 mM) was added to each well and incubated for 4 h, and then fluorescence was recorded (570 nmex/595 nmem) on a microplate reader SpectraMax M5 (Molecular Devices, Sunnyvale, CA). The IC50 values were determined in three independent experiments by fitting concentration–response curves using nonlinear regression with a four-parameter logistic (4PL) model in GraphPad Prism v10.

[5] = Cytotoxicity assay (resazurin); assay type: cell-based; conditions: human, THP-1 cells, pH 7.4
Method: as §1
THP-1 cells were cultured in 96-well plates at a density of 1 × 10^4 cells per well in 100 μL of RPMI 1640 medium supplemented with 10% heat-inactivated fetal bovine serum (FBS) and 25 mM HEPES (pH 7.4). Cultures were maintained at 37 °C in a humidified atmosphere containing 5% CO2. After 24 h of incubation, the test compounds were prepared in serial dilutions in complete medium, starting at a concentration of 200 μM. Subsequently, 100 μL of each diluted compound solution was added to the corresponding wells containing the cells, with each concentration tested in duplicate wells. Following a 72 h incubation period, resazurin solution (Sigma) was added to each well at a final concentration of 20 μM, and plates were incubated for an additional 4 h under the same conditions. Fluorescence was measured using a SpectraMax M5 microplate reader (Molecular Devices, Sunnyvale, CA, USA) with an excitation wavelength of 570 nm and an emission wavelength of 595 nm.

[6] = Experimental determination of distribution coefficient (eLogD), chromatographic; assay type: physicochemical; conditions: Supelco Ascentis Express RP Amide HPLC column; pH 7.4, chromatographic retention method
Method: (§2) ADME profiling was conducted using liquid chromatography coupled with tandem mass spectrometry (LC–MS/MS).
The eLogD was carried out using a chromatographic method based on the analyte retention times within a stationary phase. Separation was performed on a Supelco Ascentis Express RP Amide high-performance liquid chromatography (HPLC) column (5 cm × 2.1 mm, 2.7 μm particle size), utilizing a binary mobile phase system composed of 5% methanol in 10 mM ammonium acetate buffer at pH 7.4 (designated as solvent A), and pure methanol (solvent B). […] The injection volume for each sample was 5 μL. Test compounds were diluted to a concentration of 1.0 mg/mL in a 1:1 mixture of mobile phases A and B, containing an internal standard at 200 nM. Final DMSO concentration was kept below 2%. […] A calibration curve was generated by plotting the retention times of these standards against their corresponding eLogD values. The linear regression equation (y = mx + b) obtained from this curve was then used to calculate the eLogD of each test compound.

[7] = Parallel artificial membrane permeability assay (PAMPA); assay type: in vitro ADME; conditions: donor pH 6.5, acceptor pH 7.4, 5 h, 37 °C; for Papp at 5 h, 10 μM: PAMPA, read-out: PAMPA Pe
Method: as §2
Each well is divided into two chambers, donor and acceptor, separated by a triple-layer phospholipid membrane constructed on a porous filter. Solutions of the compounds are prepared by diluting their respective stock solutions (10 mM in DMSO) in phosphate-buffered saline (PBS) at pH 6.5, yielding a final concentration of 10 μM (<1% DMSO, v/v). The solutions are then added to the donor portion of the plate (300 μL/well) in triplicate, while the acceptor portion received only PBS pH 7.4 (200 μL/well). The donor and acceptor portions are subsequently assembled, and the system is incubated for 5 h at 37 °C and 100 rpm. […] After the incubation period, samples are collected from the donor (10 μL) and acceptor (80 μL) wells and added to the analysis plate containing stop solution (300 μL) and PBS buffer pH 6.5 (60 μL). Final compound concentrations in the donor, acceptor, and Tzero wells are quantified by LC-MS/MS. The chromatogram for analysis was achieved on Supelco Ascentis express C18 column (3 cm × 2.1 mm, 5 μM). The mobile phases consisted of water +0.1% formic acid (A) and acetonitrile +0.1% formic acid (B). […] The results were used to calculate an effective permeability (Pe) value. All PAMPA assay was performed in triplicates.

[8] = Mouse liver microsomal stability assay; assay type: in vitro ADME; conditions: CD1, mouse, mouse liver microsomes, pH 7.4, 0.25 mg/mL protein; for microsomal CLint at 0.5 μM: read-out: MLM CLint; for half-life at 0.5 μM: read-out: MLM T 1/2
Method: as §2
Compounds were diluted to a final concentration of 0.5 μM and incubated with microsomal protein at 0.25 mg/mL in phosphate-buffered saline (PBS) at pH 7.4. The DMSO content in the incubation mixture was maintained below 1%. The metabolic reaction was initiated by introducing NADPH as a cofactor at a concentration of […]. Aliquots were taken at defined time intervals: 0 (immediately after NADPH addition), 5, 10, 20, 30, and 60 min. Reactions were halted by the addition of a quenching solvent consisting of a 1:1 mixture of acetonitrile and methanol containing an internal standard at 50 nM. Following quenching, samples were centrifuged at 3500 rpm for 30 min to pellet the precipitated microsomal proteins. The resulting supernatants were analyzed via LC–MS/MS. Quantification was performed based on the peak area ratio (PAR) of the analyte to internal standard, with the signal at time zero defined as 100%. The percentage of parent compound remaining at each time point was calculated accordingly. Using the plot of % remaining versus incubation time, the degradation rate constant (k) was determined via nonlinear regression. […] Chromatographic analysis was carried out using a Supelco Ascentis Express C18 column (3 cm × 2.1 mm, 5 μm particle size). The mobile phases were composed of water with 0.1% formic acid (A) and acetonitrile with 0.1% formic acid (B). […] All metabolic stability assays were conducted in triplicate.

[9] = Leishmania infantum, Macrophage, THP-1-derived macrophages infected with L. infantum, read-out: L. infantum IC50 Intracellular
[10] = Leishmania infantum, Macrophage, read-out: L. infantum IC50 Intracellular, THP-1-derived macrophages infected with L. infantum, 48 h
[11] = THP-1-derived macrophages infected with L. infantum, read-out: L. infantum IC50 Intracellular

C[C@@H]1[C@H](O)[C@@H](C)/C=C/C=C/C=C/C=C/C=C/C=C/C=C/[C@H](O[C@@H]2O[C@H](C)[C@@H](O)[C@H](N)[C@@H]2O)C[C@@H]2O[C@](O)(C[C@@H](O)C[C@@H](O)[C@H](O)CC[C@@H](O)C[C@@H](O)CC(=O)O[C@H]1C)C[C@H](O)[C@H]2C(=O)O [Amphotericin B]
CC50 [1]: 1.2 µM
SI [2]: 8.6
IC50 [2]: 0.14 µM

Cc1ccccc1CN1CCC(CN(Cc2cccnc2)Cc2cc(CC(C)C)[nH]n2)CC1 [LC-58]
IC50 [3, 9]: 7.81 ± 4.13 µM
Selectivity index Intracellular [3]: 4.48
IC50 ([4]; resazurin): 7.85 ± 0.64 µM
Selectivity index Promastigotes [4]: 4.45
CC50 at 72 h [5]: 35 ± 5.2 µM

CCc1nc(C)c(C(=O)NCC(c2cccnc2)N2CCCCC2)s1 (centres unmarked) [LC-59]
IC50 ([4]; resazurin): > 20 µM

Cc1cc(F)ccc1N1CCC(NC(Cn2ccnc2)c2ccccc2)CC1 (centres unmarked) [LC-60]
chromatographic logD [6]: 4.45
Papp at 5 h, 10 μM [7]: 63.6 nm/s
IC50 ([4]; resazurin): 0.43 ± 0.05 µM
CC50 at 72 h [5]: 40.8 ± 28.2 µM
microsomal CLint at 0.5 μM [8]: 120 µL/min/mg
half-life at 0.5 μM [8]: 0.386 h

CCCCC(NC1CCN(c2ccccc2F)CC1)c1cccnc1 (centres unmarked) [LC-61]
chromatographic logD [6]: 4.07
Papp at 5 h, 10 μM [7]: 48.6 nm/s
PAMPA Pe [7]: 4.86 10^–6 cm/s
IC50 ([4]; resazurin): 0.037 ± 0.002 µM
CC50 at 72 h [5]: 157 ± 20.7 µM

Fc1ccc(N2CCC(NCC(c3cccnc3)N3CCCCC3)CC2)cc1F (centres unmarked) [LC-62]
Selectivity index Intracellular [3]: >24.7
IC50 ([4]; resazurin): 9.62 ± 0.98 µM
Selectivity index Promastigotes [4]: >10.4
CC50 at 72 h [5]: > 100 µM

Fc1cccc(CN(Cc2cccnc2)CC2CCCN(C3CCCCC3)C2)c1 (centres unmarked) [LC-63]
IC50 [3, 10]: 11.5 ± 24 µM
IC50 [4]: 4.53 ± 0.8 µM
Selectivity index Promastigotes [4]: 7.26
CC50 at 72 h [5]: 32.9 ± 5.22 µM

Cc1ccccc1CN1CCC(CN(Cc2cccnc2)Cc2nc(C(C)C)cs2)CC1 [LC-64]
IC50 [3, 9]: 6.72 ± 5.79 µM
Selectivity index Intracellular [3]: 4.13
IC50 ([4]; resazurin): 3.95 ± 0.42 µM
Selectivity index Promastigotes [4]: 7.03
CC50 at 72 h [5]: 27.8 ± 3.59 µM

O=C(C(c1cccnc1)N1CCOCC1)N1CCCN(Cc2ccc(F)cc2)CC1 (centres unmarked) [LC-65]
IC50 [3, 10]: > 55.5 µM
IC50 [4]: 3.59 ± 0.53 µM
CC50 at 72 h [5]: > 245 µM

O=C(Cc1ccccc1)NC(c1ccc(Cl)cc1)c1cccnc1 (centres unmarked) [LC-66]
IC50 [3, 9]: 40.5 ± 58.7 µM
Selectivity index Intracellular [3]: >2.46
IC50 ([4]; resazurin): 3.18 ± 0.72 µM
Selectivity index Promastigotes [4]: >31.4
CC50 at 72 h [5]: > 100 µM

O=C(NCCc1cnc[nH]1)c1cc(-c2ccccc2)nc2ccccc12 [LC-67]
IC50 ([4]; resazurin): > 20 µM

Cc1ccc(C)c(-c2nc(NC(=O)c3ccncc3)sc2C)c1 [LC-68]
IC50 ([4]; resazurin): > 20 µM

Cc1ccc(C)c(-c2nc(NC(=O)C3CC3)sc2C)c1 [LC-69]
IC50 ([4]; resazurin): > 20 µM

CC(C)N1CCC(C(=O)NC(c2ccc(Cl)cc2)c2cccnc2)CC1 (centres unmarked) [LC-70]
IC50 ([4]; resazurin): > 20 µM

O=C1OCc2ccc(NC(=O)N3CCCCC3c3cccnc3)cc21 (centres unmarked) [LC-71]
IC50 [3, 10]: < 10 µM
Selectivity index Intracellular [3]: >20.5
IC50 [3, 11]: 9.76 ± 10.2 µM
IC50 ([4]; resazurin): 11.7 ± 2.86 µM
Selectivity index Promastigotes [4]: >17.1
CC50 at 72 h [5]: > 200 µM

Cn1nnc2cc(NC(=O)N3CCCCC3c3cccnc3)ccc21 (centres unmarked) [LC-72]
IC50 ([4]; resazurin): > 20 µM

CC(C)n1cc(C(=O)NC(c2ccc(Cl)cc2)c2cccnc2)cn1 (centres unmarked) [LC-73]
IC50 ([4]; resazurin): > 20 µM

O=C(Nc1ccc(Cl)cn1)N1CCCCC1c1cccnc1 (centres unmarked) [LC-74]
chromatographic logD [6]: 2.39
Papp at 5 h, 10 μM [7]: 108 nm/s
IC50 ([4]; resazurin): 0.49 ± 0.07 µM
CC50 at 72 h [5]: > 200 µM
microsomal CLint at 0.5 μM [8]: 27.2 µL/min/mg
half-life at 0.5 μM [8]: 1.7 h

OC(COc1ccc(Br)cc1)Cn1ccnc1 (centres unmarked) [LC-75]
IC50 [3, 10]: < 10 µM
Selectivity index Intracellular [3]: >14.8
IC50 [3, 11]: 6.73 ± 3.27 µM
IC50 ([4]; resazurin): 10.5 ± 1.26 µM
Selectivity index Promastigotes [4]: >9.52
CC50 at 72 h [5]: > 100 µM

CCCCCCCCCCCCCCCCOP(=O)([O-])OCC[N+](C)(C)C [miltefosine]
CC50 [1]: 51.1 µM
SI [2]: 138
IC50 [2]: 0.37 µM
